Source: patent US20180265463A1, “Vitamin D3 Derivatives and Pharmaceutical Use Thereof” (Kyoto University, priority 2014, published 2018)
Where “and” joins values, the source holds several entries; their conditions need not be identical. Identical values can stand only once. Entries after “also recorded” stand apart in the source; their conditions may differ.

Key:
Format in all cases: cell-based, Chinese hamster
[1] = test system: SREBP-2 fragment fused to PLAP (PLAP-BP2513-1141); assay: PLAP-BP assay (secreted alkaline phosphatase reporter of SREBP translocation and processing); conditions: VD derivatives 10 μM, 20 h, CHO-K1 co-transfected with PLAP-BP2 and SCAP; average of two experiments
SREBP-2 = assay: Western-blot analysis of SREBP-2 in CHO-K1 cells; conditions: 5 μM, 18 h, CHO-K1 cells (FIG. 3)
Procedure: CHO-K1 cells were treated with DMSO alone or each molecule (5 μM) for 18 h. The levels of precursor and mature forms of SREBP-2 were analyzed by Western-blot. Western-blots of actin are shown in lower panel as a loading control.
CHO-K1 cells were treated with DMSO alone or each molecule (5 μM) for 16 h. The levels of precursor and mature forms of SREBP-2 were analyzed by Western-blot. Western-blots of actin are shown in lower panel as a loading control.
(§1) On day 0, CHO-K1 cells were added to 6-well plates at 3.0×10^5 cells per well in medium A. On day 1, the cells were washed with PBS, and then incubated in medium B in the absence or presence of specific test compounds (5 μM). After 16 h of incubation, the cells were washed three times with cold PBS, and lysed with a buffer A (50 mM Tris-HCl (pH 7.5), 150 mM NaCl, 1% (v/v) Nonidet P40, 0.5% (w/v) sodium deoxycholate, 8 M urea, and protease inhibitor cocktail (Nacalai)). The cell lysate were passed 16 times through a 25 G needle and centrifuged at 7,000 g at 4° C. for 10 min. The supernatants were transferred to new tubes, and the pellets were extracted with a buffer A. The resulting buffer was centrifuged at 7,000 g at 4° C. for 10 min, and the supernatants were combined to the previous ones. The resulting lysate was mixed with 0.20 volume of 6×SDS sample buffer (Nacalai) and incubated at room temperature for 30 min. The samples were separated on a 10% SDS-PAGE gel and blotted, using mouse monoclonal antibodies against SREBP-2 (IgG-7D4), SCAP (IgG-9D5), c-Myc (IgG1-MC045), and actin (AC-40). The specific bands were visualized using enhanced chemiluminescence (ECL Prime Western Blotting Detection Reagent, GE Healthcare) on an ImageQuant LAS 500 (GE Healthcare).

SREBP = assay: SRE-driven luciferase reporter assay of SREBP activation; conditions: luciferase reporter in CHO-K1 cells, lipid-depleted medium, 20-24 h, normalized to β-galactosidase; averages of three independent experiments; read-out: IC50 (μM), inhibitory effect on the activation of SREBP
Procedure: The transfected cells were treated with DMSO alone, sterols (10 μg/mL cholesterol and 1.0 μg/mL 25-HC), or varied concentrations of 25(OH)D in a medium containing lipid-free serum. Luciferase activity was measured after 20 h incubation, and the data were normalized to β-galactosidase activity. Values are the mean±SD of three independent experiments.
The molecules in a chemical library which consists of 280 endogenous lipid related molecules were screened for their ability to inhibit the expression of a luciferase reporter gene. In this gene, three repeats of sterol regulatory elements (SREs) control expression of luciferase. Lipid depletion activates SREBPs, which bind to the SRE domain and work as transcription factors to express luciferase. The SREBP-responsive reporter construct was co-transfected into Chinese hamster ovary K1 (CHO-K1) cells, along with a control β-galactosidase (β-gal) reporter gene. A constitutively active actin promoter in the reporter gene drives the expression of β-gal. The levels of luciferase expression from the SREBP-responsive reporter gene were normalized to the levels of β-gal expression.
CHO-K1 cells were maintained in a medium A (1:1 mixture of Ham's F-12 medium and Dulbecco's modified Eagle medium, supplemented with 100 units/mL penicillin, 100 μg/mL streptomycin sulfate, and 5% (v/v) fetal bovine serum) at 37° C. under humidified 5% CO2.
On day 0, CHO-K1 cells were added to 96-well plates at 1.0×10^4 cells per well in medium A. On day 1, the cells were co-transfected with an SRE-1-driven luciferase reporter construct (pSRE-Luc) and pAc-β-gal at a 20/1 ratio, using FuGENE(Registered trademark) HD transfection reagent (Promega), according to the manufacturer's protocol. After 8-12 h of incubation, the cells were washed with PBS buffer, then incubated in medium B containing the specific test compounds. […] After 20-24 h of incubation, the cells in each well were lysed by freeze-thaw with Reporter Lysis Buffer (Promega), and aliquots were used to measure luciferase and β-galactosidase activities. Luciferase activity was measured using the Steady-Glo(Registered trademark) Luciferase Assay System (Promega), and β-galactosidase activity was measured using the β-galactosidase Enzyme Assay System (Promega). Luciferase activity was normalized to β-galactosidase activity.

SCAP [2] = assay: Western-blot analysis of SCAP levels and ubiquitination in CHO-K1 cells
Procedure: (§2) After incubation for the indicated time, the levels of SCAP and precursor and mature forms of SREBP-2 were analyzed by Western-blot. Western-blots of actin are shown in lower panel as a loading control.
(§3) CHO-K1 cells were treated with DMSO alone or 25(OH)D (5 μM) in the presence or absence of MG-132 (10 μM) for 5 h. The levels of Myc-SCAP were analyzed by Western-blot. Western-blots of actin are shown in lower panel as a loading control.
(§4) CHO-K1 cells were treated with DMSO alone (−) or 25(OH)D (5 μM, +). After 2 h incubation, each dish received MG-132 (10 μM). Following incubation for 2 h, cells were harvested and subjected to immunoprecipitation with monoclonal anti-c-Myc-conjugated agarose beads. The ubiquitination of SCAP was analyzed by Western-blot.
as §1

SCAP [3] = molecular target: T1, SCAP (Cricetulus griseus, UniProt P97260); assay: as above; conditions: 5 μM, CHO-K1 cells, different times (FIG. 4)
T1 construct: endogenous in cells; host or cells: CHO-K1
T1 sequence (P97260 1-1276): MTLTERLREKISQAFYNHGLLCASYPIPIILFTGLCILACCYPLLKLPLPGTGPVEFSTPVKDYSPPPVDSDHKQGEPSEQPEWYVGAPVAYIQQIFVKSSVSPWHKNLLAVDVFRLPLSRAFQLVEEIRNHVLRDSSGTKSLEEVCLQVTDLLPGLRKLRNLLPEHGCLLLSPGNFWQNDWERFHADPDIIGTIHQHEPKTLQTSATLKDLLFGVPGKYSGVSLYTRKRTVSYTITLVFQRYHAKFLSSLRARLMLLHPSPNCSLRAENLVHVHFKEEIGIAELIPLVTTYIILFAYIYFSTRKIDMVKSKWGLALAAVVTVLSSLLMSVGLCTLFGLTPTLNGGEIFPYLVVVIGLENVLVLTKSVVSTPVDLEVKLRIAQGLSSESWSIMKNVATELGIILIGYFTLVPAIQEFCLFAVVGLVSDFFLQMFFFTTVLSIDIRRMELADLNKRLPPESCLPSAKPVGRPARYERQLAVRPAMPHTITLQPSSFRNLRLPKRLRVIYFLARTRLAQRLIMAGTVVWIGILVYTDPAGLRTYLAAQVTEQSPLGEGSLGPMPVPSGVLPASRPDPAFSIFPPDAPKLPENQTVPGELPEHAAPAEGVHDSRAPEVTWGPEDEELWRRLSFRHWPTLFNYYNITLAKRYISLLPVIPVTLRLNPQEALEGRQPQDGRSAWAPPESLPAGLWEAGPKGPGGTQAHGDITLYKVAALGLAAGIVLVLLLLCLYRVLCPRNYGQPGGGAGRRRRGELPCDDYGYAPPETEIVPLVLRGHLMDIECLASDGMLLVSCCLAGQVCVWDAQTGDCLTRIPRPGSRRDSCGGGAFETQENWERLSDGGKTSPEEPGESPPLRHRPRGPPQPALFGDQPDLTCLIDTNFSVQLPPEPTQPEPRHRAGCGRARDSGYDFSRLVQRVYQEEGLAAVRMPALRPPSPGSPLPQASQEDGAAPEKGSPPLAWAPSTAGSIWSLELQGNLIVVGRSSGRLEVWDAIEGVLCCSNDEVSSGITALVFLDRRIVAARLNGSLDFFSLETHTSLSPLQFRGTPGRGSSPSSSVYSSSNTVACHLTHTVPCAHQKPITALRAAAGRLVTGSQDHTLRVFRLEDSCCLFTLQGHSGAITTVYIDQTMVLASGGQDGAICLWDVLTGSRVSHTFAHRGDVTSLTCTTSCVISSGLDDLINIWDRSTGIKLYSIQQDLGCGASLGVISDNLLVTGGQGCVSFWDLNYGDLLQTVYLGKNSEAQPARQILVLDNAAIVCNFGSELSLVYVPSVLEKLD
Procedure: as §2, §3, §4, §1

IC50 (SREBP): 1 µM and 1.09 µM
levels of SCAP (SCAP [3]): reduced
Compound: C=C1CC[C@H](O)C/C1=C/C=C1\CCC[C@]2(C)[C@@H]([C@H](C)CCCC(C)(C)O)CC[C@@H]12 [25(OH)D, 25-hydroxyvitamin D3]
secretion of PLAP [1]: inhibited the secretion of PLAP to a greater extent than sterol; also recorded: caused a greater decrease in PLAP secretion than did cholesterol
level of mature form of SREBP (SREBP-2): decreased
level of precursor form of SREBP (SREBP-2): decreased
ubiquitination of SCAP (SCAP [2]; 5 μM, 2 h then MG-132 10 μM for 2 h, immunoprecipitation (FIG. 6)): accelerated
decrease in the levels of SCAP (Myc-SCAP) on addition of MG-132 (SCAP [2]; 25(OH)D 5 μM with MG-132 10 μM, 5 h (FIG. 5)): cancelled
